Experimental data from ChEMBL document CHEMBL5506029 (J Med Chem, 2024).
Each block holds one molecule with its values, some of them ahead of it.

Experiments:
[1] = Unbound brain-to-plasma concentration ratio in rat at iv dosed for 4 to 24 hrs by LC-MS/MS analysis; type: ADME, organism-based; conditions: time 4-24 hrs; for Kp uu: read-out: K(p,uu,brain)
[2] = Unbound clearance in rat plasma at iv dosed for 4 to 24 hrs by LC-MS/MS analysis; type: ADME, organism-based; conditions: in vivo, time 4-24 hrs
[3] = Clearance in rat plasma at iv dosed for 4 to 24 hrs by LC-MS/MS analysis; type: ADME, organism-based; conditions: time 4-24 hrs
[4] = Intrinsic clearance in human Hepatocyte; type: ADME, cell-based; conditions: hepatocytes, read-out: CLH
[5] = Oral bioavailability in dog; type: ADME, organism-based, Canis lupus familiaris; conditions: in vivo
[6] = Volume of distribution at steady state in iv dosed dog; type: ADME, organism-based, Canis lupus familiaris; conditions: in vivo, read-out: Vdss
[7] = AUCinfinity in Cynomolgus monkey at iv administration; type: ADME, organism-based, Macaca fascicularis; conditions: in vivo
[8] = AUCinfinity in rat at iv administration; type: ADME, organism-based; conditions: in vivo
[9] = Half life in mouse at iv administration; type: ADME, organism-based; conditions: in vivo
[10] = Volume of distribution at steady state in rat at iv administration; type: ADME, organism-based; conditions: in vivo, read-out: Vdss
[11] = Tmax in rat at po administration; type: ADME, organism-based; conditions: in vivo
[12] = Clearance in rat at iv administration; type: ADME, organism-based; conditions: in vivo
[13] = Half life in Cynomolgus monkey at iv administration; type: ADME, organism-based, Macaca fascicularis; conditions: in vivo
[14] = Half life in iv dosed dog; type: ADME, organism-based, Canis lupus familiaris; conditions: in vivo
[15] = Tmax in Cynomolgus monkey at po administration; type: ADME, organism-based, Macaca fascicularis; conditions: in vivo
[16] = Unbound clearance in mouse at iv administration; type: ADME, organism-based; conditions: in vivo
[17] = Intrinsic clearance in human liver microsomes; type: ADME, Microsome; conditions: read-out: CLH
[18] = Volume of distribution at steady state in mouse at iv administration; type: ADME, organism-based; conditions: in vivo, read-out: Vdss
[19] = AUCinfinity in iv dosed dog; type: ADME, organism-based, Canis lupus familiaris; conditions: in vivo
[20] = AUCinfinity in mouse at iv administration; type: ADME, organism-based; conditions: in vivo
[21] = Unbound clearance in iv dosed dog; type: ADME, organism-based, Canis lupus familiaris; conditions: in vivo
[22] = Volume of distribution at steady state in Cynomolgus monkey at iv administration; type: ADME, organism-based, Macaca fascicularis; conditions: in vivo, read-out: Vdss
[23] = Tmax in po dosed dog; type: ADME, organism-based, Canis lupus familiaris; conditions: in vivo
[24] = Tmax in mouse at po administration; type: ADME, organism-based; conditions: in vivo
[25] = Half life in rat at iv administration; type: ADME, organism-based; conditions: in vivo
[26] = Oral bioavailability in Cynomolgus monkey; type: ADME, organism-based, Macaca fascicularis; conditions: in vivo
[27] = Oral bioavailability in rat; type: ADME, organism-based; conditions: in vivo
[28] = Clearance in iv dosed dog; type: ADME, organism-based, Canis lupus familiaris; conditions: in vivo
[29] = Clearance in Cynomolgus monkey at iv administration; type: ADME, organism-based, Macaca fascicularis; conditions: in vivo
[30] = Unbound clearance in rat at iv administration; type: ADME, organism-based; conditions: in vivo
[31] = Oral bioavailability in mouse; type: ADME, organism-based; conditions: in vivo
[32] = Unbound clearance in Cynomolgus monkey at iv administration; type: ADME, organism-based, Macaca fascicularis; conditions: in vivo

Compound: COC[C@@]12CC[C@@](c3cn4cc(C(=O)Nc5cccn(C6CC6)c5=O)c(OC(C)C)nc4n3)(CO1)C2
Kp uu [1]: 0.2
CL free [2]: 281 mL/min/kg
clearance [3]: 17 mL/min/kg

Compound: Cc1cnc2c(NC(=O)c3cn4cc(C56COC(C)(C5)C6)nc4nc3OC(C)C)cnn2c1
K(p,uu,brain) ([1]; iv): 0.3

Compound: COC[C@@]12CC[C@@](c3cn4cc(C(=O)Nc5cccn([C@H]6C[C@H]6F)c5=O)c(OC(C)C)nc4n3)(CO1)C2
Kp uu [1]: 0.1
CL free [2]: 312 mL/min/kg
clearance [3]: 33 mL/min/kg

Compound: CC(C)Oc1nc2nc(C34COC(C3)C4)cn2cc1C(=O)Nc1cccn(C2CC2)c1=O
Kp uu [1]: 0.4
CL free [2]: 88 mL/min/kg
clearance [3]: 8 mL/min/kg

Compound: CC(C)Oc1nc2nc(C34CCC(C)(C3)OC4)cn2cc1C(=O)Nc1cccn([C@H]2C[C@H]2F)c1=O (single isomer, unassigned)
Kp uu [1]: 0.2
CL free [2]: 306 mL/min/kg
clearance [3]: 12.7 mL/min/kg

Other lines, results leading:

Kp uu [1]: 0.2
CL free [2]: 51 mL/min/kg
clearance [3]: 9.6 mL/min/kg
Compound: CC(C)Oc1nc2nc(C34COC(CF)(C3)C4)cn2cc1C(=O)Nc1cccn(C2CC2)c1=O

Kp uu [1]: 0.4
Compound: CC(C)Oc1nc2nc(C34COC(C)(C3)C4)cn2cc1C(=O)Nc1cccn([C@H]2C[C@H]2C)c1=O

CLint scaled [4]: 5.1 mL/min/kg
bioavailability [5]: 89%
Vd [6]: 1.4 L/kg
Kp uu [1]: 0.7
AUC(0-inf) [7]: 1130 ng·h/mL
AUC(0-inf) [8]: 1040 ng·h/mL
half-life [9]: 1.6 h
Vd [10]: 2.9 L/kg
Tmax [11]: 0.25 h
clearance [12]: 14.2 mL/min/kg
half-life [13]: 0.8 h
half-life [14]: 1.4 h
Tmax [15]: 1.2 h
CL free [16]: 240 mL/min/kg
CLint scaled [17]: < 5 mL/min/kg
Vd [18]: 1.5 L/kg
AUC(0-inf) [19]: 1400 ng·h/mL
AUC(0-inf) [20]: 1020 ng·h/mL
CL free [21]: 76 mL/min/kg
Vd [22]: 0.9 L/kg
Tmax [23]: 0.6 h
Tmax [24]: 0.25 h
half-life [25]: 2.5 h
bioavailability [26]: 61%
bioavailability [27]: 128%
clearance [28]: 12.7 mL/min/kg
clearance [29]: 15.1 mL/min/kg
CL free [30]: 171 mL/min/kg
bioavailability [31]: 92%
CL free [32]: 98 mL/min/kg
Compound: CC(C)Oc1nc2nc(C34COC(C)(C3)C4)cn2cc1C(=O)Nc1cccn(C2CC2)c1=O

Kp uu [1]: 0.5
CL free [2]: 170 mL/min/kg
clearance [3]: 20.8 mL/min/kg
Compound: COCC12CC(c3cn4cc(C(=O)Nc5cccn(C6CC6)c5=O)c(OC(C)C)nc4n3)(CO1)C2

Kp uu [1]: 0.3
Compound: CC(C)Oc1nc2nc(C34COC(C)(C3)C4)cn2cc1C(=O)Nc1cccn([C@H]2C[C@H]2F)c1=O (single isomer, unassigned)

Kp uu [1]: 0.3
CL free [2]: 310 mL/min/kg
clearance [3]: 36 mL/min/kg
Compound: CC(C)Oc1nc2nc([C@@]34CC[C@@](C)(C3)OC4)cn2cc1C(=O)Nc1cccn(C2CC2)c1=O (single isomer, unassigned)
